According to patent publication US20230000876A1, “TREATING CANCERS WITH A CYCLIN-DEPENDENT KINASE INHIBITOR” (Nuvation Bio Inc., priority 2021, published 2023):
Where two headings read alike, the source gives them in different places.

What was measured:
[1] = test system: xMDA-MB-361 breast tumor; assay: xMDA-MB-361 breast tumor model (ER-positive/HER2-positive); format: in vivo, female BALB/c nude mice; conditions: Group 2: Fulvestrant 1 mg/dose SC QW*42 days
Description: Trastuzumab, tucatinib, Compound (I), and fulvestrant were tested in a xMDA-MB-361 breast tumor model (ER-positive/HER2-positive) on female BALB/c nude mice.

[2] = test system: xBT474 breast tumor; assay: xBT474 breast tumor model (ER-negative/HER2-positive); conditions: Group 2: Fulvestrant 1 mg/dose SC QW*28 days
[3] = test system: MCF-7 tumors; format: in vivo; conditions: for T/C / TGI: PG-D37
Description: The in vivo anti-tumor efficacy of the compound of formula (I) either alone or in combination with fulvestrant on MCF-7 breast tumor model on female Balb/c nude mice was assessed. MCF-7 cells are a breast cancer cell line that is HR+HER2−. See Booms et al., (2019) Cancer Epidemiol Biomarkers Prev 28(10); 1735-1745, which is hereby incorporated by reference.
The study was in two parts. The first part was designed to measure tumor growth inhibition (TGI). The second part was used to measure pharmacokinetic and pharmacodynamic (PKPD) parameters. In the studies, the compound of formula (I) was dosed orally (po) and fulvestrant was dosed subcutaneously. […]
The MCF-7 tumor cells were maintained in vitro in MEM supplemented with 10% heat inactivated fetal bovine serum at 37° C. in an atmosphere of 5% CO2 in air. The tumor cells were routinely subcultured twice weekly. The cells growing in an exponential growth phase were harvested and counted for tumor inoculation.
Each mouse was inoculated subcutaneously at the right flank with MCF-7 (10*10^6) cells in 0.2 mL of PBS mixed with Matrigel (50:50) for tumor development. 17β-Estradiol (0.36 mg, 60-day release) pellets (Innovative Research of America Cat. No.: SE-121, pellet size: 3.0 mm) were implanted 2 days before cell inoculation.
In TGI part, the treatments was started on day 7 after cell inoculation when the average tumor volume reaches 173 mm^3. 72 mice were selected and assigned into 9 groups. The testing articles were administrated to the mice according to Table 1.
For TGI part, the major endpoint was to see if the tumor growth could be delayed or mice could be cured. Tumor size was measured twice weekly in two dimensions using a caliper, and the volume was expressed in mm^3 using the formula: V=0.5 a×b^2 where a and b are the long and short diameters of the tumor, respectively. The tumor sizes are then used for the calculation of T/C and TGI values.
The T/C value (in percent) is an indication of antitumor effectiveness; T and C are the mean volume of the treated and control groups, respectively, on a given day.
TGI was calculated for each group using the formula: TGI (%)=[1−(Ti−T0)/(Vi−V0)]×100; Ti is the average tumor volume of a treatment group on PG-Di, T0 is the average tumor volume of the treatment group on the day of treatment start, Vi is the average tumor volume of the vehicle control group on the same day with Ti, and V0 is the average tumor volume of the vehicle group on the day of treatment start.
For comparison among of tumor volume of groups 2-9 and group 1, a one-way ANOVA was performed. All the analysis were conducted using GraphPad Prism software. p<0.05 was considered to be statistically significant.

[4] = test system: MCF-7 tumors; format: in vivo; conditions: 1/3/5 mg/dose SC QW, PG-D49
Description: The in vivo anti-tumor efficacy of the compound of formula (I) either alone or in combination with fulvestrant on MCF-7 breast tumor model on female Balb/c nude mice was evaluated. The protocol was he same as described in Example 1 with the exception that the dosing schedule of fulvestrant was modified.

C[C@]12CC[C@@H]3c4ccc(O)cc4C[C@@H](CCCCCCCCC[S+]([O-])CCCC(F)(F)C(F)(F)F)[C@H]3[C@@H]1CC[C@@H]2O (stereo partly shown) [Fulvestrant, reference compound]
Tumor volume (mean ± SEM) ([1]; Day 0): 157 ± 13 mm^3
Tumor volume (mean ± SEM) ([1]; Day 3): 185 ± 11 mm^3
Tumor volume (mean ± SEM) ([1]; Day 7): 226 ± 28 mm^3
Tumor volume (mean ± SEM) ([1]; Day 10): 321 ± 53 mm^3
Tumor volume (mean ± SEM) ([1]; Day 14): 489 ± 101 mm^3
Tumor volume (mean ± SEM) ([1]; Day 17): 588 ± 153 mm^3
Tumor volume (mean ± SEM) ([1]; Day 21): 773 ± 204 mm^3
Tumor volume (mean ± SEM) ([1]; Day 24): 890 ± 235 mm^3
Tumor volume (mean ± SEM) ([1]; Day 28): 1022 ± 256 mm^3
Tumor volume (mean ± SEM) ([1]; Day 31): 1113 ± 293 mm^3
Tumor volume (mean ± SEM) ([1]; Day 35): 1192 ± 330 mm^3
Tumor volume (mean ± SEM) ([1]; Day 38): 1300 ± 344 mm^3
Tumor volume (mean ± SEM) ([1]; Day 42): 1396 ± 356 mm^3
Tumor volume (mean ± SEM) ([2]; Day 0): 146 ± 10 mm^3
Tumor volume (mean ± SEM) ([2]; Day 4): 188 ± 26 mm^3
Tumor volume (mean ± SEM) ([2]; Day 7): 187 ± 14 mm^3
Tumor volume (mean ± SEM) ([2]; Day 11): 311 ± 55 mm^3
Tumor volume (mean ± SEM) ([2]; Day 14): 391 ± 55 mm^3
Tumor volume (mean ± SEM) ([2]; Day 18): 468 ± 69 mm^3
Tumor volume (mean ± SEM) ([2]; Day 21): 532 ± 79 mm^3
Tumor volume (mean ± SEM) ([2]; Day 25): 617 ± 93 mm^3
Tumor volume (mean ± SEM) ([2]; Day 28): 741 ± 113 mm^3
Tumor volume (mean ± SEM) ([2]; Day 32): 750 ± 115 mm^3
Tumor volume (mean ± SEM) ([2]; Day 35): 797 ± 121 mm^3
Tumor volume (mean ± SEM) ([2]; Day 39): 800 ± 131 mm^3
Tumor volume (mean ± SEM) ([2]; Day 42): 843 ± 146 mm^3
Tumor volume (mean ± SEM) ([2]; Day 46): 816 ± 138 mm^3
T/C ([3]; 1 mg/dose QW): 42.68%
TGI ([3]; 1 mg/dose QW): 62.74%
Tumor volume (mean ± SEM) ([3]; 1 mg/dose SC QW, day 0): 173 ± 12 mm^3
Tumor volume (mean ± SEM) ([3]; 1 mg/dose SC QW, day 3): 206 ± 10 mm^3
Tumor volume (mean ± SEM) ([3]; 1 mg/dose SC QW, day 6): 272 ± 20 mm^3
Tumor volume (mean ± SEM) ([3]; 1 mg/dose SC QW, day 9): 315 ± 33 mm^3
Tumor volume (mean ± SEM) ([3]; 1 mg/dose SC QW, day 13): 389 ± 50 mm^3
Tumor volume (mean ± SEM) ([3]; 1 mg/dose SC QW, day 16): 472 ± 47 mm^3
Tumor volume (mean ± SEM) ([3]; 1 mg/dose SC QW, day 20): 595 ± 87 mm^3
Tumor volume (mean ± SEM) ([3]; 1 mg/dose SC QW, day 23): 623 ± 93 mm^3
Tumor volume (mean ± SEM) ([3]; 1 mg/dose SC QW, day 27): 697 ± 104 mm^3
Tumor volume (mean ± SEM) ([3]; 1 mg/dose SC QW, day 30): 727 ± 116 mm^3
Tumor volume (mean ± SEM) ([3]; 1 mg/dose SC QW, day 34): 829 ± 130 mm^3
Tumor volume (mean ± SEM) ([3]; 1 mg/dose SC QW, day 37): 856 ± 140 mm^3
Tumor volume (mean ± SEM) ([3]; 1 mg/dose SC QW, day 41): 859 ± 142 mm^3
Tumor volume (mean ± SEM) ([3]; 1 mg/dose SC QW, day 44): 808 ± 164 mm^3
Tumor volume (mean ± SEM) ([3]; 1 mg/dose SC QW, day 48): 623 ± 104 mm^3
T/C ([3]; 3 mg/dose QW): 15.70%
TGI ([3]; 3 mg/dose QW): 92.26%
Tumor volume (mean ± SEM) ([3]; 3 mg/dose SC QW, day 0): 173 ± 13 mm^3
Tumor volume (mean ± SEM) ([3]; 3 mg/dose SC QW, day 3): 181 ± 9 mm^3
Tumor volume (mean ± SEM) ([3]; 3 mg/dose SC QW, day 6): 205 ± 16 mm^3
Tumor volume (mean ± SEM) ([3]; 3 mg/dose SC QW, day 9): 240 ± 12 mm^3
Tumor volume (mean ± SEM) ([3]; 3 mg/dose SC QW, day 13): 310 ± 25 mm^3
Tumor volume (mean ± SEM) ([3]; 3 mg/dose SC QW, day 16): 337 ± 33 mm^3
Tumor volume (mean ± SEM) ([3]; 3 mg/dose SC QW, day 20): 285 ± 32 mm^3
Tumor volume (mean ± SEM) ([3]; 3 mg/dose SC QW, day 23): 288 ± 44 mm^3
Tumor volume (mean ± SEM) ([3]; 3 mg/dose SC QW, day 27): 275 ± 35 mm^3
Tumor volume (mean ± SEM) ([3]; 3 mg/dose SC QW, day 30): 294 ± 35 mm^3
Tumor volume (mean ± SEM) ([3]; 3 mg/dose SC QW, day 34): 314 ± 48 mm^3
Tumor volume (mean ± SEM) ([3]; 3 mg/dose SC QW, day 37): 315 ± 50 mm^3
Tumor volume (mean ± SEM) ([3]; 3 mg/dose SC QW, day 41): 329 ± 54 mm^3
Tumor volume (mean ± SEM) ([3]; 3 mg/dose SC QW, day 44): 294 ± 48 mm^3
Tumor volume (mean ± SEM) ([3]; 3 mg/dose SC QW, day 48): 228 ± 29 mm^3
T/C [4]: 38.19%
TGI [4]: 71.50%
Tumor Size [4]: 451 mm^3
